{"source": "paper PMC9105976", "about": "“A Novel β-Hairpin Peptide Z-d14CFR Enhances Multidrug-Resistant Bacterial Clearance in a Murine Model of Mastitis” (International Journal of Molecular Sciences, 2022)", "key": {"MRSA ATCC33591": {"tested_on": "MRSA ATCC33591", "assay": "MIC/MBC, microdilution broth method", "assay_type": "cell-based, S. aureus", "conditions": "MRSA ATCC33591; kills 99.9% bacteria; NA = no activity at 1 mg/mL", "method": "(§1) The MIC of peptides against bacteria was carried out by the microdilution broth method. The bacterial culture (OD 600 = 0.6) was diluted in 10 mM PBS to 1 × 10^6 CFU/mL. The bacterial suspension (100 μL) was added to 96-well plates, and the same volume of peptides, ampicillin or gentamicin (concentrations ranging from 0.001 to 2 mg/mL) were then added to the same 96-well plates, respectively."}, "E. coli ATCC25922 [1]": {"tested_on": "E. coli ATCC25922", "assay": "Cytoplasmic membrane integrity, SYTO 9/PI flow cytometry", "assay_type": "cell-based", "conditions": "2 MIC, 3 h, flow cytometry, 10,000 cells, PBS 0%", "method": "(§2) E. coli ATCC25922 and S. aureus ATCC29213 (OD600 = 0.6) were washed and diluted into 1 × 10^8 CFU/mL in sterile saline. The cells were treated with Z-d14CFR in the final concentration of 2 MIC for 3 h. Following that, the same volume of a mixture contains SYTO 9 dye and PI (Thermo Fisher, Waltham, MA, USA) (v/v, 1:1) was added to bacteria and incubated at 37 °C in the dark for 15 min. The bacteria were washed with saline to remove the unbound dye and then observed with a Nikon A1 confocal laser scanning microscope.\n(§3) In order to further determine the percentage of PI-positive cells, the data of 10,000 cells were collected and analyzed by BD LSRFortessa flow cytometer."}, "S. aureus ATCC29213 [2]": {"tested_on": "S. aureus ATCC29213", "assay": "Cytoplasmic membrane integrity, SYTO 9/PI flow cytometry", "assay_type": "cell-based", "conditions": "2 MIC, 3 h, flow cytometry, 10,000 cells, PBS 0.4%", "method": "as §2, §3"}, "[3]": {"assay": "Retention time of peptide in HPLC (hydrophobicity)", "assay_type": "physicochemical", "conditions": "used as measure of hydrophobicity (order Z-d14CR > Z-d14CF > Z-d13 > Z-d14CFR > Z-d14C); column and gradient not given"}, "E. coli ATCC25922 [4]": {"tested_on": "E. coli ATCC25922", "assay": "Extracellular β-galactosidase assay", "assay_type": "cell-based", "conditions": "2 MIC, 4 h at 37 °C, ONPG, OD 420 nm, compared with PBS, p < 0.001", "method": "(§4) E. coli ATCC25922 and S. aureus ATCC29213 were washed and resuspended with 10 mM PBS into OD 600 = 0.5. […] Then, 190 μL of the supernatants was incubated with 10 μL 2-nitrophenyl-β-d-galactopyranoside, ONPG (Macklin, N814742, Shanghai, China) at a final concentration of 3 mM at 37 °C for 30 min. The absorbance at 420 nm was measured to assess the level of β-galactosidase outside the cells. The bacteria treated with 10 mM PBS in absence of peptide as the negative control and treated with ultrasonication as the positive control."}, "S. aureus ATCC29213 [5]": {"tested_on": "S. aureus ATCC29213", "assay": "Extracellular β-galactosidase assay", "assay_type": "cell-based", "conditions": "2 MIC, 4 h at 37 °C, ONPG, OD 420 nm, compared with PBS, p < 0.001", "method": "as §4"}, "E. coli CAU201919": {"tested_on": "E. coli CAU201919", "assay": "Murine model of mastitis induced by MDR E. coli", "assay_type": "in vivo, mice", "conditions": "Z-d14CFR 25 μg or gentamicin 10 μg via milk duct at 3 h and 15 h, 27 h post-infection", "description": "In this study, the therapeutic effects of Z-d14CFR on MDR bacterial infection in vivo was verified by a murine mastitis model. E. coli CAU201919 was used to establish the mastitis model because it is highly pathogenic compared with other bacteria and is resistant to various antibiotics, such as ampicillin, amoxicillin and cefazolin. In brief, 45 Crl:CD1 female mice at 17–18 days of gestation were purchased from Beijing Vital River Laboratory Animal Technology Co., Ltd. (Beijing, China) and kept in the Laboratory Animal Center of China Agricultural University (Beijing, China). At 72 h post-partum, the mice were randomly divided into 5 groups (n = 9 per group) and the offspring were removed 3 h before of administration. The mice were anesthetized by Zoletil 50 (55 mg/kg body weight, WK001, Virbac, France) and held under the stereoscope in a supine position. Mice in the saline group and Z-d14CFR group were intraductal inoculated with 50 μL normal saline or 50 μL Z-d14CFR (25 μg each teat) alone to the milk duct. Mice in other groups were inoculated with 25 μL (1 × 10^5 CFU) E. coli CAU201919 suspension to the milk duct, and after 3 h of E. coli challenged, mice were treated with 25 μL saline, Z-d14CFR (25 μg) or gentamicin (10 μg), respectively, via milk duct injection. Then the mice were given the same treatment after 15 h of E. coli challenged. After 27 h of E. coli challenged, all mice were euthanized. The mammary gland tissues were collected to carry out bacterial count, histopathological examination and inflammatory factors examination."}, "[6]": {"tested_on": "Proteus vulgaris CVCC1971", "assay": "MIC/MBC, microdilution broth method", "assay_type": "cell-based", "conditions": "Proteus vulgaris CVCC1971; kills 99.9% bacteria; NA = no activity at 1 mg/mL", "method": "as §1"}, "[7]": {"tested_on": "Streptococcus suis CVCC3307", "assay": "MIC/MBC, microdilution broth method", "assay_type": "cell-based", "conditions": "Streptococcus suis CVCC3307; kills 99.9% bacteria; NA = no activity at 1 mg/mL", "method": "as §1"}, "[8]": {"tested_on": "E. coli ATCC25922 and S. aureus ATCC29213", "assay": "Cytoplasmic membrane depolarization, DiSC3(5)", "assay_type": "cell-based", "conditions": "2 MIC to 1/4 MIC; fluorescence 622/670 nm, 30 min", "method": "The ability of Z-d14CFR to disrupt inner cytoplasmic membrane potential of E. coli ATCC25922 and S. aureus ATCC29213 was monitored using 3,3-dipropylthiadicarbocyanine iodide DiSC3(5) (Macklin, D864435, Shanghai, China) as previous mentioned. The bacteria were washed and resuspended with 5 mM HEPES, pH 7.4, containing 5 mM glucose and 100 mM KCl buffer into 1 × 10^6 CFU/mL. DiSC3(5) was subsequently added and incubated at 37 °C in the dark for 15 min until the fluorescence had stabilized. Z-d14CFR in a final concentration of 2 MIC, 1 MIC, 1/2 MIC and 1/4 MIC was added to the mixture. The fluorescence intensity was continuously monitored for 30 min by an excitation wavelength of 622 nm and an emission wavelength of 670 nm."}, "E. coli ATCC25922 [9]": {"tested_on": "E. coli ATCC25922", "assay": "Time-killing assay", "assay_type": "cell-based", "conditions": "2 MIC, CFU counts at 0-24 h", "method": "(§5) E. coli ATCC25922 and S. aureus ATCC29213 in the mid-logarithmic phase were diluted into 1 × 10^6 CFU/mL with 10 mM PBS, and incubated with 10 μL Z-d14CFR in a final concentration of 2 MIC. At 0, 4, 8, 12, 16, 20, and 24 h, the mixture was serial diluted and spread onto LB agar plates. After 16 h of cultivation, the CFU number of bacteria was counted to evaluate the ability of peptide to kill bacteria. The bacteria treated with 10 mM PBS as a negative control, and meanwhile incubated with 2 MIC gentamicin or polymyxin B as a positive control."}, "S. aureus ATCC29213 [10]": {"tested_on": "S. aureus ATCC29213", "assay": "Time-killing assay", "assay_type": "cell-based", "conditions": "2 MIC, CFU counts at 0-24 h", "method": "as §5"}, "[11]": {"tested_on": "mammalian cells (MAC-T, Hela, Vero)", "assay": "Cytotoxicity, CCK8", "assay_type": "cell-based", "conditions": "at 1 mg/mL, 24 h in DMEM with 1% FBS, CCK8, OD 450 nm, three independent experiments", "method": "The cytotoxicity of peptides to mammalian cells was carried out according to CCK8 instructions (Beyotime, Shanghai, China). 1 × 10^4 Hela, Vero and MAC-T cells were, respectively, added in 96-well plates and cultured at 37 °C with 5% CO2 for 24 h. Then, the cells were washed thrice with 10 mM PBS to remove medium and then incubated with 100 μL peptide in DMEM with 1 % (v/v) FBS (finally concentration ranging from 1 mg/mL to 0.001 mg/mL). After incubating at 37 °C with 5% CO2 for 24 h, 10 μL CCK8 was added to the cells and then continued to be incubated at 37 °C for 4 h. CCK8 interacted with PBS without cells as the blank control. The absorbance of the mixture was measured at 450 nm and cell viability was calculated as follows: Cell viability (%) = (OD 450 peptide − OD 450 Blank)/(OD 450 PBS − OD 450 Blank) × 100%."}}, "note": "Positions of bridges follow the written chain, without caps; N, C: chain ends. Residues, ends and D or L forms follow the SMILES beside them.", "data": [{"smiles": "CC(C)[C@@H]1NC(=O)[C@@H]2CSSC[C@H](NC(=O)[C@H](CCCNC(=N)N)NC(=O)[C@@H](NC(=O)CNC(=O)[C@@H](N)CCCNC(=N)N)CSSC[C@@H](C(=O)N[C@@H](CCCNC(=N)N)C(N)=O)NC1=O)C(=O)N[C@@H](CC(N)=O)C(=O)N[C@@H](CO)C(=O)N[C@@H](CCCCN)C(=O)N[C@@H](CO)C(=O)N[C@@H](Cc1ccccc1)C(=O)N2", "note": "[Z-d14CFR] (H-RGCRCNSKSFCVCR-NH2; disulfide 3-13, 5-11; N-terminus assumed)", "values": [{"measurement": "MBC", "setting": "MRSA ATCC33591", "value": "NA (NA) (No antimicrobial activity at 1 mg/mL)"}, {"measurement": "PI-positive bacteria", "setting": "E. coli ATCC25922 [1]", "value": 12.5, "unit": "%"}, {"measurement": "PI-positive bacteria", "setting": "S. aureus ATCC29213 [2]", "value": 3.4, "unit": "%"}, {"measurement": "RT, retention time of peptide in HPLC", "setting": "[3]", "value": 7.820, "unit": "min"}, {"measurement": "extracellular release of β-galactosidase", "setting": "E. coli ATCC25922 [4]", "value": "significantly induced the release of β-galactosidase"}, {"measurement": "extracellular release of β-galactosidase", "setting": "S. aureus ATCC29213 [5]", "value": "significantly induced the release of β-galactosidase"}, {"measurement": "bacterial burden in the mammary gland", "setting": "E. coli CAU201919; Crl:CD1 mice, 1 × 10^5 CFU E. coli CAU201919 intraductal, infected only about 3.71 × 10^9, p < 0.001", "value": "3.57 × 10^8 CFU/g tissue"}, {"measurement": "histopathologic damage of the mammary gland (acinar wall thickening, neutrophils infiltration)", "setting": "E. coli CAU201919", "value": "obviously ameliorated"}, {"measurement": "increase in IL-1β mRNA expression in the mammary gland", "setting": "E. coli CAU201919; p < 0.001", "value": "attenuated"}, {"measurement": "increase in TNF-α mRNA expression in the mammary gland", "setting": "E. coli CAU201919; p < 0.001", "value": "attenuated"}, {"measurement": "MBC", "setting": "[6]", "value": "NA (NA) (No antimicrobial activity at 1 mg/mL)"}, {"measurement": "MBC", "setting": "[7]", "value": "NA (NA) (No antimicrobial activity at 1 mg/mL)"}, {"measurement": "DiSC3(5) release (cytoplasmic membrane depolarization)", "setting": "[8]", "value": "remarkable releasing of DiSC3(5)"}, {"measurement": "time to kill bacteria in the logarithmic phase", "setting": "E. coli ATCC25922 [9]; 1 × 10^6 CFU/mL", "value": "≤ 4", "unit": "h"}, {"measurement": "time to kill bacteria in the plateau", "setting": "E. coli ATCC25922 [9]", "value": "≤ 16", "unit": "h"}, {"measurement": "time to kill bacteria in the logarithmic phase", "setting": "S. aureus ATCC29213 [10]; 1 × 10^6 CFU/mL", "value": "≤ 4", "unit": "h"}, {"measurement": "time to kill bacteria in the plateau", "setting": "S. aureus ATCC29213 [10]", "value": "≤ 16", "unit": "h"}, {"measurement": "cytotoxicity", "setting": "[11]", "value": "< 10", "unit": "%"}]}]}
